Holding throughout (experiment): NCI tumour cell line growth inhibition, 48 h
The test system of assay [1] is SF-539 CNS.
Assay [2] deals with RXF 393 renal.
Assay [3] concerns SNB-19 CNS.
Assay [4] has as its system OVCAR-8 ovarian.
The test system of assay [5] is SW-620 colon.
Assay [6] deals with SK-MEL-2 melanoma.
For assay [7], the system named is NCI-H23 lung.
Assay [8] concerns A498 renal.
Assay [9] relates to MCF7 breast.
For assay [10], the system named is OVCAR-3 ovarian.

Values joined by “and” are separate entries in the source; they are usually repeats but may differ in a detail not shown here. Equal values may be shown once.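 Following 48 hours of exposure in 96-well plates, responses at five concentrations were used to interpolate endpoints linearly. Here, GI50 denotes the concentration required for 50% inhibition of growth. TGI marks complete inhibition of growth.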 Some results are limits rather than exact numbers.

With `COc1ccc(OC)c(C2=C(c3cn(C)c4ccccc34)C(=O)NC2=O)c1`, the GI50 in [1] is above 25 µM; in assay [2] it was above 25 µM; in [3] it was above 25 µM; in [4] it was above 25 µM; in assay [5] it was 20.8 µM; in [6], above 25 µM. In addition, the GI50 in [7] was above 25 µM; in assay [8], above 15.6 µM; in [9], above 20.7 µM; in assay [10], above 25 µM. The TGI in [1], in [2], in [3], in assay [4], in [5] and in [6] was above 25 µM in each case. The TGI in [7], in assay [8], in assay [9] and in assay [10] was above 25 µM in each case.
Take `CS(=O)(=O)Nc1cc(-c2ccc3ncc(C#N)c(Nc4ccc(F)c(Cl)c4)c3c2)cnc1Cl`: the GI50 in [1] is 0.109 µM; in [2], 0.125 µM; in [3] it was 0.212 µM; in [4], 0.331 µM; in [5] it was 0.107 µM; in assay [6] it was 0.133 µM. In addition, the GI50 in [7] is 0.108 µM; in [8], 0.0398 µM; in [9] it was 0.0946 µM; in [10] it was 0.0657 µM. Moreover, the TGI in [1] is 0.79 µM; in [2], 0.6 µM; in assay [3] it was 1.64 µM; in [4], above 100 µM; in assay [5], 4.31 µM; in [6], 0.53 µM. Further, the TGI is 3.91 µM in assay [7], 0.302 µM in assay [8], above 100 µM in assay [9] and 0.909 µM in assay [10].
Take `O=C1/C(=C/c2ccc(Cl)cc2)CN(Cc2cn(CCCNc3ccnc4cc(Cl)ccc34)nn2)C/C1=C\c1ccc(Cl)cc1`: the GI50 is 0.645 µM in assay [1]; 1.65 µM in [2]; 0.643 µM in assay [3]; 0.572 µM in assay [4]; 0.316 µM in assay [5]; 2.03 µM in [6]. Further, the GI50 in assay [7] is 1.26 µM; in assay [8] it was 1.23 µM; in assay [9], 0.362 µM; in [10] it was 0.56 µM. Besides, the TGI was found to be 1.72 µM in assay [1]; 3.15 µM in assay [2]; 1.86 µM in assay [3]; 1.41 µM in assay [4]; 1.37 µM in assay [5]; 3.71 µM in assay [6]. Moreover, the TGI amounted to 3.82 µM in [7], 2.53 µM in assay [8], 1.46 µM in [9] and 1.85 µM in assay [10].
On to `COc1ccc(-c2nc3sccn3c2-c2ccnc(NCCNS(=O)(=O)c3ccc(C(F)(F)F)cc3)n2)cc1`, for which the GI50 in [1] is 2.55 µM; in assay [2] it was 2.66 µM; in assay [3], 3.77 µM; in [4] it was 2.85 µM; in [5] it was 4.24 µM; in assay [6], 3.04 µM. The GI50 was 3.56 µM in [7], 0.31 µM in [8], 3.15 µM in assay [9] and 2.03 µM in [10]. The TGI in [1] was 7.77 µM; in [2], 63.2 µM; in assay [3], above 100 µM; in [4], above 100 µM; in assay [5], 38.9 µM; in assay [6], 9.26 µM. Moreover, the TGI is 62.3 µM in assay [7], 6.86 µM in assay [8], above 100 µM in assay [9] and above 100 µM in [10].
Regarding `CC(C)[C@@]12C[C@@H](OC(=O)COC(=O)c3ccccc3)[C@@](C)(O1)[C@@H]1CC[C@@H](C)[C@H]1[C@@H]2OC(=O)/C=C/c1ccccc1`, the GI50 in assay [1] is above 100 µM; in assay [2], 0.284 µM; in [3] it was above 100 µM; in assay [4], 0.134 µM; in [5], above 100 µM; in [6], above 100 µM. In addition, the GI50 in assay [7] is above 100 µM; in [8], 0.153 µM; in assay [9] it was above 65 µM; in assay [10] it was above 100 µM. In addition, the TGI in assay [1] was above 100 µM; in [2], above 8.44 µM; in assay [3], above 100 µM; in assay [4], above 100 µM; in assay [5] it was above 100 µM; in assay [6], above 100 µM. Also, the TGI was above 100 µM in assay [7], 0.529 µM in assay [8], above 100 µM in assay [9] and above 100 µM in [10].
For the compound `CC(=O)Oc1ccc(C2OC(c3ccc4ccccc4c3OC(C)=O)=NN2C(C)=O)c(OC(C)=O)c1` (stereo not given), the GI50 in [1] was 0.342 µM; in [2], 0.432 µM; in assay [3], 0.56 µM; in [4] it was 0.363 µM; in [5], 0.455 µM; in assay [6], 0.602 µM. For the same compound, the GI50 was 1.28 µM in assay [7], 1.73 µM in assay [8], 0.413 µM in assay [9] and 0.354 µM in assay [10]. The TGI in assay [1] is 12.3 µM; in assay [2] it was 16.3 µM; in assay [3], above 100 µM; in [4], above 100 µM; in [5], above 43.3 µM; in assay [6] it was above 48.7 µM. Also, the TGI in assay [7] is 97.4 µM; in assay [8], 17.5 µM; in assay [9], above 38.6 µM; in [10], 26.1 µM.
For `Cn1c2c(c3ccccc31)CCN1C[C@@H]3CCCC[C@H]3C[C@@H]21`, the GI50 in assay [1] was 2.87 µM; in assay [2], 0.964 µM; in assay [3], 5.15 µM; in [4] it was 2.84 µM; in assay [5], 3.43 µM; in assay [6] it was 5.8 µM. In addition, the GI50 is 3.55 µM in assay [7], 2.08 µM in [8], 3.17 µM in [9] and 1.95 µM in assay [10]. The TGI in [1] was above 30 µM; in [2], 7.47 µM; in assay [3] it was above 100 µM; in assay [4], above 30.2 µM; in assay [5], above 100 µM; in [6], above 26.7 µM. Further, the TGI in assay [7] is above 100 µM; in assay [8], 7.07 µM; in [9], above 72.8 µM; in assay [10], 4.74 µM.
Consider `CC[C@]12C=CCN3CC[C@]4(C(=C(C(=O)OC)C1)Nc1cc5c(cc14)[C@@H]1[C@H](O5)[C@@H](O)[C@@]4(CC)CC(C(=O)OC)=C5Nc6ccccc6[C@@]56CCN1[C@@H]46)[C@@H]32`, for which the GI50 in [1] was 0.15 µM and 0.339 µM; in [2] it was 0.523 µM and 0.456 µM; in assay [3], 0.644 µM and 0.592 µM; in [4] it was 0.648 µM and 0.449 µM; in assay [5], 0.868 µM and 0.495 µM; in assay [6] it was 1.13 µM and 1.18 µM. The GI50 in [7] is 0.577 µM and 0.316 µM; in assay [8], 0.0729 µM and 0.283 µM; in assay [9], 0.144 µM and 0.275 µM; in assay [10] it was 0.24 µM and 0.255 µM. Also, the TGI in assay [1] was 3.74 µM and 7.05 µM; in [2], 3.76 µM and 2.56 µM; in assay [3], 25 µM and 42.1 µM; in [4], 25 µM and > 100 µM; in assay [5], 13.5 µM and 7.85 µM; in [6] it was 25 µM and > 100 µM. Further, the TGI in assay [7] is 4.51 µM and 1.46 µM; in [8], 0.788 µM and 1.17 µM; in [9], 25 µM and 26.6 µM; in [10], 1.13 µM and 1.29 µM.
For `CCOC(=O)C#Cc1cccc(C#CC(=O)OCC)c1`, the TGI in assay [1] was determined as 9.65 µM; in assay [2] it was 10.9 µM; in assay [3], 11.4 µM; in assay [4] it was 26 µM; in assay [5], 14.6 µM; in assay [6], 5.04 µM. For the same compound, the TGI in [7] is 10.6 µM; in assay [8], 36.2 µM; in assay [9], 15.6 µM; in assay [10], 13.4 µM.

(Values after PubChem BioAssay (NCI).)
